# Results published in the supplement of paper PMC4862054.
# What was measured:
# Conditions in all cases: 72 h
# [1] = system: HCC1599
# How it was run: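 Seeding of breast cancer cell lines (20 µl suspension) was done into 384-well plates pre-loaded with compound at 5 concentrations, 10-fold apart, covering a compound-specific 10,000-fold range. The plates were incubated for 72 h, read for CellTox Green fluorescence (485/520 nm), and then read for CellTiter-Glo luminescence after 10 min at room temperature. Every plate was normalised to 0.1 % DMSO and a positive kill control. Curve fitting gave the EC50, censored at the top concentration.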
# [2] = system: CAL-148
# How it was run: (§1)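 Each 384-well plate was pre-loaded with compound dissolved in 5 µl medium, received breast cancer cells in 20 µl suspension, and was incubated 72 h. A 2.5 µl addition of CellTiter-Blue for 2 h at 37 °C was followed by a fluorescence read at 560/590 nm. Data were normalised per plate to vehicle and a positive kill control and checked by Z'-factor. EC50 was fitted from the percent-inhibition dose-response curve, censored at the highest concentration, excluding rows with a drug sensitivity score of zero.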
# [3] = system: CAL-51
# How it was run: as §1
# [4] = system: CAL-85-1
# How it was run: as §1
# [5] = system: DU-4475
# How it was run: as §1
# [6] = system: HDQ-P1
# How it was run: as §1
# [7] = system: MDA-MB-453
# How it was run: as §1
# [8] = system: BT-474
# How it was run: as §1
# [9] = system: BT-549
# How it was run: as §1
# [10] = system: CAL-120
# How it was run: as §1
# [11] = system: HCC1143
# How it was run: as §1
# [12] = system: HCC1599; remark: listed apart in the source
# How it was run: as §1
# [13] = system: HCC1937
# How it was run: as §1
# [14] = system: Hs578T
# How it was run: as §1
# [15] = system: MDA-MB-231
# How it was run: as §1
# [16] = system: MDA-MB-436
# How it was run: as §1
# [17] = system: MDA-MB-468
# How it was run: as §1
# [18] = system: MFM-223
# How it was run: as §1
# [19] = system: SK-BR-3
# How it was run: as §1
# [20] = system: BT-474; remark: listed apart in the source
# Experimental: (§2)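 Drug sensitivity and resistance testing (DSRT) of breast cancer cell lines in 384-well plates, 5 concentrations in 10-fold dilutions over a compound-specific 10,000-fold range. After 72 h, cytotoxicity was read by CellTox Green fluorescence and viability by CellTiter-Glo luminescence (multiplexed), normalised to DMSO and benzethonium chloride controls. EC50 is the inflection point of the fitted dose-response curve (bottom asymptote free, so it can be relative for partial curves) and is censored at the highest tested concentration. Rows with DSS 0 (no meaningful response) were excluded.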
# [21] = system: BT-549; remark: listed apart in the source
# Experimental: as §2
# [22] = system: CAL-120; remark: listed apart in the source
# Experimental: as §2
# [23] = system: CAL-148; remark: listed apart in the source
# Experimental: as §2
# [24] = system: CAL-85-1; remark: listed apart in the source
# Experimental: as §2
# [25] = system: HCC1937; remark: listed apart in the source
# Experimental: as §2
# [26] = system: HDQ-P1; remark: listed apart in the source
# Experimental: as §2
# [27] = system: Hs578T; remark: listed apart in the source
# Experimental: as §2
# [28] = system: MCF-10A
# Experimental: as §2
# [29] = system: MDA-MB-231; remark: listed apart in the source
# Experimental: as §2
# [30] = system: MDA-MB-436; remark: listed apart in the source
# Experimental: as §2
# [31] = system: MDA-MB-468; remark: listed apart in the source
# Experimental: as §2
# [32] = system: MFM-223; remark: listed apart in the source
# Experimental: as §2
# [33] = system: DU-4475; remark: listed apart in the source
# Experimental: as §2
# [34] = system: HCC1599; remark: listed apart in the source
# Experimental: as §2
# [35] = system: MDA-MB-453; remark: listed apart in the source
# Experimental: as §2
# [36] = system: HCC1143; remark: listed apart in the source
# Experimental: as §2
"EC50, CellTiter-Glo [1] [nM]","EC50, CellTiter-Blue viability [7] [nM]","EC50, CellTiter-Blue viability [8] [nM]","EC50, CellTiter-Blue viability [9] [nM]","EC50, CellTiter-Blue viability [12] [nM]","EC50, CellTiter-Blue viability [15] [nM]","EC50, CellTiter-Blue viability [16] [nM]","EC50, CellTiter-Blue viability [17] [nM]","EC50, CellTiter-Blue viability [19] [nM]",Compound,"EC50, CellTiter-Blue viability [2] [nM]","EC50, CellTiter-Blue viability [3] [nM]","EC50, CellTiter-Blue viability [4] [nM]","EC50, CellTiter-Blue viability [5] [nM]","EC50, CellTiter-Blue viability [6] [nM]","EC50, CellTiter-Blue viability [10] [nM]","EC50, CellTiter-Blue viability [11] [nM]","EC50, CellTiter-Blue viability [13] [nM]","EC50, CellTiter-Blue viability [14] [nM]","EC50, CellTiter-Blue viability [18] [nM]","EC50, CellTox Green [20] [nM]","EC50, CellTox Green [21] [nM]","EC50, CellTox Green [22] [nM]","EC50, CellTox Green [23] [nM]","EC50, CellTox Green [24] [nM]","EC50, CellTox Green [25] [nM]","EC50, CellTox Green [26] [nM]","EC50, CellTox Green [27] [nM]","EC50, CellTox Green [28] [nM]","EC50, CellTox Green [29] [nM]","EC50, CellTox Green [30] [nM]","EC50, CellTox Green [31] [nM]","EC50, CellTox Green [32] [nM]","EC50, CellTox Green [33] [nM]","EC50, CellTox Green [34] [nM]","EC50, CellTox Green [35] [nM]","EC50, CellTox Green [36] [nM]"
96.1,2.22,26.9,2.78,88.6,6.44,14.3,5.66,5.45,CC(C)C[C@H](NC(=O)[C@H](CCc1ccccc1)NC(=O)CN1CCOCC1)C(=O)N[C@@H](Cc1ccccc1)C(=O)N[C@@H](CC(C)C)C(=O)[C@@]1(C)CO1 [Carfilzomib],25.8,20.2,13.6,12.2,10.9,9.07,8.47,2.21,5.47,1.94,60.2,11.4,34.6,16.1,9,6.49,25.1,31.9,136,10.2,6.94,0.78,8.42,–,–,–,–
–,–,–,–,–,–,–,–,–,CC(C)(C)Cn1c(N)nc2ccc(-c3[nH]c(C(C)(C)C)nc3-c3ccc(F)cc3)nc21,–,–,–,–,–,–,–,–,–,–,–,–,> 10000,–,–,–,–,–,–,–,–,–,–,–,–,–,–
–,–,–,–,–,–,–,–,–,C[C@]12C=CC(=O)C=C1CC[C@@H]1[C@@H]2C(=O)C[C@@]2(C)[C@H]1CC[C@]2(O)C(=O)CO [Prednisone],–,–,–,–,–,–,–,–,–,–,–,–,1000,–,–,–,–,–,–,–,–,–,–,–,–,–,–
2830,4990,5530,3250,–,2830,6850,3630,–,CCN(CC)CCOc1ccc(C(=C(Cl)c2ccccc2)c2ccccc2)cc1 [Clomifene],–,–,9270,7320,9480,4600,–,9530,–,6930,3470,–,–,–,6280,1760,–,2260,1010,1990,–,–,522,5820,9780,5670,–

Compound,"EC50, CellTiter-Glo [1] [nM]","EC50, CellTiter-Blue viability [7] [nM]","EC50, CellTiter-Blue viability [8] [nM]","EC50, CellTiter-Blue viability [9] [nM]","EC50, CellTiter-Blue viability [12] [nM]","EC50, CellTiter-Blue viability [15] [nM]","EC50, CellTiter-Blue viability [16] [nM]","EC50, CellTiter-Blue viability [17] [nM]","EC50, CellTiter-Blue viability [19] [nM]","EC50, CellTiter-Blue viability [2] [nM]","EC50, CellTiter-Blue viability [3] [nM]","EC50, CellTiter-Blue viability [4] [nM]","EC50, CellTiter-Blue viability [5] [nM]","EC50, CellTiter-Blue viability [6] [nM]","EC50, CellTiter-Blue viability [10] [nM]","EC50, CellTiter-Blue viability [11] [nM]","EC50, CellTiter-Blue viability [13] [nM]","EC50, CellTiter-Blue viability [14] [nM]","EC50, CellTiter-Blue viability [18] [nM]","EC50, CellTox Green [20] [nM]","EC50, CellTox Green [21] [nM]","EC50, CellTox Green [22] [nM]","EC50, CellTox Green [23] [nM]","EC50, CellTox Green [24] [nM]","EC50, CellTox Green [25] [nM]","EC50, CellTox Green [26] [nM]","EC50, CellTox Green [27] [nM]","EC50, CellTox Green [28] [nM]","EC50, CellTox Green [29] [nM]","EC50, CellTox Green [30] [nM]","EC50, CellTox Green [31] [nM]","EC50, CellTox Green [32] [nM]","EC50, CellTox Green [33] [nM]","EC50, CellTox Green [34] [nM]","EC50, CellTox Green [35] [nM]","EC50, CellTox Green [36] [nM]"
Cc1c(N)nc([C@H](CC(N)=O)NC[C@H](N)C(N)=O)nc1C(=O)N[C@H](C(=O)N[C@H](C)[C@@H](O)[C@H](C)C(=O)N[C@H](C(=O)NCCc1nc(-c2nc(C(=O)NCCC[S+](C)C)cs2)cs1)[C@@H](C)O)[C@@H](OC1OC(CO)C(O)C(O)C1OC1OC(CO)C(O)C(OC(N)=O)C1O)c1cnc[nH]1 (some centres not stated) [Bleomycin],–,–,–,16.4,–,109,7330,–,–,–,9960,–,–,–,582,201,767,69.2,–,–,–,–,396,–,–,–,–,–,–,7500,–,–,–,–,–,–
N[C@@H](Cc1ccc(N(CCCl)CCCl)cc1)C(=O)O [Melphalan],467,–,–,–,–,–,–,–,–,–,–,–,–,–,–,–,85.5,222,–,347,778,1790,354,392,613,363,1110,275,129,2300,293,514,1290,726,419,2910
